Measured values reported in paper doi:10.1101/2022.08.24.505199v2 (biorxiv, 2025).

Assays:
Mouse NKA α3β1 = Mouse NKA α3β1 (Mus musculus, UniProt Q6PIC6); test: NKA ATPase activity inhibition, dose response; type: biochemical
[1] = target: NKA α1 purified from pig kidney (outer medulla) (Sus scrofa, UniProt P05024); test: SPR; type: binding

- IC50 (Mouse NKA α3β1): 18.6 µM
- Kd [1]: 4.2 µM
SMILES: C=Cc1cccc2c1N(C)Cc1cc3c(cc1-2)OCO3 [HLY72]
